These compounds were tested against VMAT2 (human platelet homogenate) (Homo sapiens (Human), UniProt Q05940) (assay: Human VMAT2 Ki, slightly modified competition binding procedure (Table 11)). Conditions: 10 nM 3H-dihydrotetrabenazine.
Protocol: Following incubation at 25° C. for 90 minutes, bound radioligand was collected by rapid filtration onto GF/B glass fiber filters using a Unifilter-96 Harvester (PerkinElmer). Filter plates were pre-treated with 0.1% polyethylenimine and allowed to dry overnight, and following harvesting the filter plates were washed with 800 d VMAT2 binding buffer. Bound radioligand was quantified by scintillation counting using a Topcount NXT (PerkinElmer).
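Further: competition binding with 90 min incubation at 25 °C, after which filter-retained radioligand was measured by scintillation counting.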

Chain of VMAT2 (human platelet homogenate) (Q05940 whole entry): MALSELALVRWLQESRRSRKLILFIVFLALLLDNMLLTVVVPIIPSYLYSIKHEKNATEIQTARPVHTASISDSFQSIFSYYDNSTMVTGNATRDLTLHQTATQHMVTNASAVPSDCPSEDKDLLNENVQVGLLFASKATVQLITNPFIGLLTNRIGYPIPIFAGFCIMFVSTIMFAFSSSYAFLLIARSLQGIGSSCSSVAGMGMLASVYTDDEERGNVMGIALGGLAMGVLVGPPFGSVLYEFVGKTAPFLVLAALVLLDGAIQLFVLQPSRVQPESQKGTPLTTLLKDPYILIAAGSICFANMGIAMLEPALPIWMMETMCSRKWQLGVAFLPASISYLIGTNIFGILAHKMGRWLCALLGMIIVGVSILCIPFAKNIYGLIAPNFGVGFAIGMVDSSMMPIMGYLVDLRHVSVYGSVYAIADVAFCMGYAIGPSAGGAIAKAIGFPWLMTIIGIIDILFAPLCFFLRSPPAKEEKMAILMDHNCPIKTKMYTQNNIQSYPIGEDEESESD

Row | SMILES | Ki [nM]
1 | COc1cc2c(cc1OC)[C@H]1C[C@@H](COC(=O)CCN3CCOCC3)[C@H](CC(C)C)CN1CC2 [Compound 2-2, [(2R,3S,11bR)-9,10-dimethoxy-3-(2-methylpropyl)-1H,2H,3H,4H,6H,7H,11bH-pyrido[2,1-a]isoquinolin-2-yl]methyl 3-(morpholin-4-yl)propanoate] | < 10
2 | COc1cc2c(cc1OC)[C@H]1C[C@@H](COC(=O)[C@@H](N)Cc3ccccc3)[C@H](CC(C)C)CN1CC2 [Compound 4-2, [(2R,3S,11bR)-9,10-dimethoxy-3-(2-methylpropyl)-1H,2H,3H,4H,6H,7H,11bH-pyrido[2,1-a]isoquinolin-2-yl]methyl (2S)-2-amino-3-phenylpropanoate] | < 10
3 | COc1cc2c(cc1OC)[C@H]1C[C@@H](COC(=O)c3ccc(CN)cc3)[C@H](CC(C)C)CN1CC2 [Compound 4-18, [(2R,3S,11bR)-9,10-dimethoxy-3-(2-methylpropyl)-1H,2H,3H,4H,6H,7H,11bH-pyrido[2,1-a]isoquinolin-2-yl]methyl 4-(aminomethyl)benzoate] | 10 to 500
4 | COc1cc2c(cc1OC)[C@H]1C[C@@H](COC(=O)CCC(N)=O)[C@H](CC(C)C)CN1CC2 [Compound 2-1, [(2R,3S,11bR)-9,10-dimethoxy-3-(2-methylpropyl)-1H,2H,3H,4H,6H,7H,11bH-pyrido[2,1-a]isoquinolin-2-yl]methyl 3-carbamoylpropanoate] | < 10
5 | COc1cc2c(cc1OC)[C@H]1C[C@@H](COC(=O)CCC(=O)N(C)C)[C@H](CC(C)C)CN1CC2 [Compound 2-4, [(2R,3S,11bR)-9,10-dimethoxy-3-(2-methylpropyl)-1H,2H,3H,4H,6H,7H,11bH-pyrido[2,1-a]isoquinolin-2-yl]methyl 3-(dimethylcarbamoyl)propanoate] | < 10
6 | COc1cc2c(cc1OC)[C@H]1C[C@@H](COC(=O)CCN3CCNCC3)[C@H](CC(C)C)CN1CC2 [Compound 4-37, [(2R,3S,11bR)-9,10-dimethoxy-3-(2-methylpropyl)-1H,2H,3H,4H,6H,7H,11bH-pyrido[2,1-a]isoquinolin-2-yl]methyl 3-(piperazin-1-yl)propanoate] | < 10
7 | COc1cc2c(cc1OC)[C@H]1C[C@@H](COCC(=O)c3ccc(F)cc3)[C@H](CC(C)C)CN1CC2 [Compound 9-3, 2-{[(2R,3S,11bR)-9,l0-dimethoxy-3-(2-methylpropyl)-1H,2H,3H,4H,6H,7H,11bH-pyrido[2,1-a]isoquinolin-2-yl]methoxy}-1-(4-fluorophenyl)ethan-1-one] | > 500
8 | COc1cc2c(cc1OC)[C@H]1C[C@@H](COC(=O)CC3CCCCN3)[C@H](CC(C)C)CN1CC2 (stereo partly drawn) [Compound 4-34, [(2R,3S,11bR)-9,10-dimethoxy-3-(2-methylpropyl)-1H,2H,3H,4H,6H,7H,11bH-pyrido[2,1-a]isoquinolin-2-yl]methyl 2-(piperidin-2-yl)acetate] | < 10
9 | COCOC[C@@H]1C[C@@H]2c3cc(OC)c(OC)cc3CCN2C[C@H]1CC(C)C [Compound 9-5, (2R,3S,11bR)-9,10-dimethoxy-2-[(methoxymethoxy)methyl]-3-(2-methylpropyl)-1H,2H,3H,4H,6H,7H,11bH-pyrido[2,1-a]isoquinoline] | < 10
10 | COc1cc2c(cc1OC)[C@H]1C[C@@H](COC(=O)CCn3cnnn3)[C@H](CC(C)C)CN1CC2 [Compound 2-13, [(2R,3S,11bR)-9,10-dimethoxy-3-(2-methylpropyl)-1H,2H,3H,4H,6H,7H,11bH-pyrido[2,1-a]isoquinolin-2-yl]methyl 3-(1H-1,2,3,4-tetrazol-1-yl)propanoate] | < 10
11 | COc1cc2c(cc1OC)[C@H]1C[C@@H](COC(=O)CCNS(=O)(=O)C(C)C)[C@H](CC(C)C)CN1CC2 [Compound 2-16, [(2R,3S,11bR)-9,10-dimethoxy-3-(2-methylpropyl)-1H,2H,3H,4H,6H,7H,11bH-pyrido[2,1-a]isoquinolin-2-yl]methyl 3-(propane-2-sulfonamido)propanoate] | < 10
12 | COc1cc2c(cc1OC)[C@H]1C[C@@H](COC(=O)[C@@H]3CCCC[C@H]3N)[C@H](CC(C)C)CN1CC2 [Compound 4-4, [(2R,3S,11bR)-9,10-dimethoxy-3-(2-methylpropyl)-1H,2H,3H,4H,6H,7H,11bH-pyrido[2,1-a]isoquinolin-2-yl]methyl (1R,2R)-2-aminocyclohexane-1-carboxylate] | < 10
13 | COc1cc2c(cc1OC)[C@H]1C[C@@H](COC(=O)C3CCCN(S(C)(=O)=O)C3)[C@H](CC(C)C)CN1CC2 (stereo partly drawn) [Compound 2-37, [(2R,3S,11bR)-9,10-dimethoxy-3-(2-methylpropyl)-1H,2H,3H,4H,6H,7H,11bH-pyrido[2,1-a]isoquinolin-2-yl]methyl 1-methanesulfonylpiperidine-3-carboxylate] | 10 to 500
14 | COc1cc2c(cc1OC)[C@H]1C[C@@H](COC(=O)N3CCO[C@@H](C)C3)[C@H](CC(C)C)CN1CC2 [Compound 5-44, [(2R,3S,11bR)-9,10-dimethoxy-3-(2-methylpropyl)-1H,2H,3H,4H,6H,7H,11bH-pyrido[2,1-a]isoquinolin-2-yl]methyl (2S)-2-methylmorpholine-4-carboxylate] | < 10
15 | COc1cc2c(cc1OC)[C@H]1C[C@@H](COC(=O)CC(N)=O)[C@H](CC(C)C)CN1CC2 [Compound 2-9, [(2R,3S,11bR)-9,10-dimethoxy-3-(2-methylpropyl)-1H,2H,3H,4H,6H,7H,11bH-pyrido[2,1-a]isoquinolin-2-yl]methyl 2-carbamoylacetate] | < 10
16 | COc1cc2c(cc1OC)[C@H]1C[C@@H](COC(=O)N[C@@H]3CCCC[C@H]3C(=O)O)[C@H](CC(C)C)CN1CC2 [Compound 5-35, (1R,2R)-2-[({[(2R,3S,11bR)-9,10-dimethoxy-3-(2-methylpropyl)-1H,2H,3H,4H,6H,7H,11bH-pyrido[2,1-a]isoquinolin-2-yl]methoxy}carbonyl)amino]cyclohexane-1-carboxylic acid] | 10 to 500
17 | COc1cc2c(cc1OC)[C@H]1C[C@@H](COC(=O)[C@@H]3CCCN(Cc4ccccc4)C3)[C@H](CC(C)C)CN1CC2 [Compound 2-11, [(2R,3S,11bR)-9,10-dimethoxy-3-(2-methylpropyl)-1H,2H,3H,4H,6H,7H,11bH-pyrido[2,1-a]isoquinolin-2-yl]methyl (3R)-1-benzylpiperidine-3-carboxylate] | < 10
18 | COc1cc2c(cc1OC)[C@H]1C[C@@H](COC(=O)N3CCO[C@H](C)C3)[C@H](CC(C)C)CN1CC2 [Compound 5-37, [(2R,3S,11bR)-9,10-dimethoxy-3-(2-methylpropyl)-1H,2H,3H,4H,6H,7H,11bH-pyrido[2,1-a]isoquinolin-2-yl]methyl (2R)-2-methylmorpholine-4-carboxylate] | < 10
19 | COc1cc2c(cc1OC)[C@H]1C[C@@H](COC(=O)N3CCN(C)CC3)[C@H](CC(C)C)CN1CC2 [Compound 5-7, [(2R,3S,11bR)-9,10-dimethoxy-3-(2-methylpropyl)-1H,2H,3H,4H,6H,7H,11bH-pyrido[2,1-a]isoquinolin-2-yl]methyl 4-methylpiperazine-1-carboxylate] | > 500
20 | COc1cc2c(cc1OC)[C@H]1C[C@@H](COC(=O)C3COCCN3)[C@H](CC(C)C)CN1CC2 (stereo partly drawn) [Compound 4-32, [(2R,3S,11bR)-9,10-dimethoxy-3-(2-methylpropyl)-1H,2H,3H,4H,6H,7H,11bH-pyrido[2,1-a]isoquinolin-2-yl]methyl morpholine-3-carboxylate] | 10 to 500
21 | COc1cc2c(cc1OC)[C@H]1C[C@@H](COC(=O)C3NCc4ccccc43)[C@H](CC(C)C)CN1CC2 (stereo partly drawn) [Compound 4-6, [(2R,3S,11bR)-9,10-dimethoxy-3-(2-methylpropyl)-1H,2H,3H,4H,6H,7H,11bH-pyrido[2,1-a]isoquinolin-2-yl]methyl 2,3-dihydro-1H-isoindole-1-carboxylate] | 10 to 500
22 | COc1cc2c(cc1OC)[C@H]1C[C@@H](COC(=O)C[C@H]3CCCN3)[C@H](CC(C)C)CN1CC2 [Compound 4-23, [(2R,3S,11bR)-9,10-dimethoxy-3-(2-methylpropyl)-1H,2H,3H,4H,6H,7H,11bH-pyrido[2,1-a]isoquinolin-2-yl]methyl 2-[(2R)-pyrrolidin-2-yl]acetate] | < 10
23 | CCOC[C@@H]1C[C@@H]2c3cc(OC)c(OC)cc3CCN2C[C@H]1CC(C)C [Compound 9-8, (2R,3S,11bR)-2-(ethoxymethyl)-9,10-dimethoxy-3-(2-methylpropyl)-1H,2H,3H,4H,6H,7H,11bH-pyrido[2,1-a]isoquinoline] | < 10
24 | COc1cc2c(cc1OC)[C@H]1C[C@@H](COC(=O)CC3NC(=O)NC3=O)[C@H](CC(C)C)CN1CC2 (stereo partly drawn) [Compound 2-30, [(2R,3S,11bR)-9,10-dimethoxy-3-(2-methylpropyl)-1H,2H,3H,4H,6H,7H,11bH-pyrido[2,1-a]isoquinolin-2-yl]methyl 2-(2,5-dioxoimidazolidin-4-yl)acetate] | < 10
25 | COc1cc2c(cc1OC)[C@H]1C[C@@H](COC(=O)CCN)[C@H](CC(C)C)CN1CC2 [Compound 4-24, [(2R,3S,11bR)-9,10-dimethoxy-3-(2-methylpropyl)-1H,2H,3H,4H,6H,7H,11bH-pyrido[2,1-a]isoquinolin-2-yl]methyl 3-aminopropanoate] | < 10
26 | COc1cc2c(cc1OC)[C@H]1C[C@@H](COC(=O)N3CC(C)NCC3C)[C@H](CC(C)C)CN1CC2 (stereo partly drawn) [Compound 6-14, [(2R,3S,11bR)-9,10-dimethoxy-3-(2-methylpropyl)-1H,2H,3H,4H,6H,7H,11bH-pyrido[2,1-a]isoquinolin-2-yl]methyl 2,5-dimethylpiperazine-1-carboxylate] | < 10
27 | COc1cc2c(cc1OC)C1CC(COC(=O)C3CC(C)(C)N([O])C3(C)C)C(CC(C)C)CN1CC2 [Compound 2-27, [3-({[(2R,3S,11bR)-9,10-dimethoxy-3-(2-methylpropyl)-1H,2H,3H,4H,6H,7H,11bH-pyrido[2,1-a]isoquinolin-2-yl]methoxy}carbonyl)-2,2,5,5-tetramethylpyrrolidin-1-yl]oxidanyl] | 10 to 500
28 | COc1cc2c(cc1OC)[C@H]1C[C@@H](COC(=O)CCn3ccc(C)n3)[C@H](CC(C)C)CN1CC2 [Compound 2-23, [(2R,3S,11bR)-9,10-dimethoxy-3-(2-methylpropyl)-1H,2H,3H,4H,6H,7H,11bH-pyrido[2,1-a]isoquinolin-2-yl]methyl 3-(3-methyl-1H-pyrazol-1-yl)propanoate] | < 10

Source: patent US11053242B2, “[9,10-dimethoxy-3-(2-methylpropyl)-1H,2H,3H,4H,6H,7H,11BH-pyrido-[2,1-a]isoquinolin-2-yl]methanol and compounds, compositions and methods relating thereto” (Neurocrine Biosciences, Inc., priority 2015, dated 2021)
